Tests used:
IL-6 [1] = experiment: Spontaneous IL-6 release of PBMCs from an ALS patient (ELISA); type: cell-based, human; conditions: 1 μM, 24 hours, no LPS, versus medium only
Method: PBMCs from an ALS patient were used for this study. Whole blood samples were collected from the patient and processed for PBMC isolation with Ficoll gradient method. PBMC samples were stored in liquid nitrogen at […] for subsequent analysis of IL-6 production.
Frozen PBMC samples were thawed and rested at 37° C. […] Therefore PBMC stimulation by LPS was not required to evaluate the effects of TQS-168 and metabolite TQS-621 on IL-6 production. PBMC samples (5×10^5 cells per well) were incubated with medium only, TQS-168 (1 μM) or TQS-621 (1 μM). After 24 hours, supernatants were collected for quantification of IL-6 levels by ELISA.

IL-6 [2] = experiment: IL-6 secretion from LPS-stimulated BV2 cells (CBA assay); type: cell-based, murine; conditions: 100 ng/ml LPS, 1 μM-20 μM, 24 hours
Method: LPS was used to induce cytokine secretion from BV-2 cells. Cells were incubated with TQS-168 at various concentrations to assess whether TQS-168 could suppress the LPS-promoted release of various cytokines from in vitro cell cultures. Cytokine secretion was measured by cytometric bead array (CBA) fluorescence-activated cell sorting (FACS). Briefly, a vial of BV2 frozen stock (1 million cells per ml in complete medium) was thawed into 10 mL of complete medium per vial for a total of 4 vials. The vials were then centrifuged at 1800 rpm for 3 minutes to wash away freezing media. The four vials were then pooled into 25 mL of complete medium. TQS-168 was prepared in DMSO. Cells were incubated for 24 hours in the presence of medium (negative control), LPS (positive control), DMSO+LPS (positive control, controlling additionally for presence of DMSO in the TQS-168 stock solution), or LPS+TQS-168 at final concentrations of 1 μM, 5 μM, 10 μM, and 20 μM. After the well plates were incubated overnight for 24 hours, they were centrifuged at 1800 rpm for 5 minutes. Next, 150 μl from each well was transferred to a new set of plates, of which 50 μl was used for CBA. The plates were then centrifuged with the cells, followed by addition of 100 μl of DAPI (50 ml of PBS+10 μl of DAPI stock at 1:5000 dilution). […]

[3] = tested on: 12 human primary cell-based systems; experiment: Eurofins BioMAP Diversity PLUS panel
Excerpt: TQS-168 was characterized in the Eurofins BioMAP Diversity PLUS panel of 12 human primary cell-based systems (FIG. 12). These systems are designed to model complex human tissue and disease biology of the vasculature, skin (fibrosis), pulmonary and immune systems and provide test agent characterization in an unbiased way across a broad set of systems modeling various human disease states. Quantitative measurements of biomarker activities across this broad panel, along with comparative analysis of the biological activities of known bioactive agents in the BioMAP reference database were used to predict the safety, efficacy and function of TQS-168. A BioMAP profile in the Diversity PLUS Panel was performed for TQS-168 at concentrations of 20 μM, 6.7 μM, 2.2 μM, and 740 nM. The Y-axis represents a log-transformed ratio of the biomarker readouts for the test agent-treated sample (n=1) over vehicle controls (average of ≥6 vehicle controls from the same plate). The grey region around the Y-axis represents the 95% significance envelope that was generated from the upper and lower bound values of historical vehicle controls. Biomarker activities were annotated when two or more consecutive concentrations change in the same direction relative to vehicle controls, were outside of the significance envelope, and have at least one concentration with an effect size >20% (|log10 ratio|>0.1). Biomarker key activities were described as modulated if these activities increase in some systems, but decreased in others.

TNF-α = experiment: LPS-induced TNF-α production of human PBMC (CBA assay); type: cell-based; conditions: 100 ng/ml LPS, 24 hours, compared to no treatment
Method: Peripheral blood mononuclear cells (PBMC) from 4 different healthy volunteers were used in this study. Fresh blood samples were collected at Stanford Blood Center and processed for PBMC isolation with Ficoll gradient. PBMC samples were stored in liquid nitrogen at […] for subsequent analysis of TNF-α production. For TNF-α stimulation, frozen PBMC samples were thawed and rested at 37° C. before cells were stimulated with 100 ng/ml of LPS for 24 hours. DMSO (1:1000 final dilution) or TQS-168 in DMSO (1:1000 final dilution) at various concentrations was added to cell cultures of LPS-stimulated PBMC to evaluate the effects of T-168 on TNF-α production of human primary myeloid cells. After 24 hours stimulation, supernatant samples from various conditions were collected and TNF-α concentrations in the supernatants analyzed with cytometric bead array (CBA) assay per protocols from BD Biosciences. TNF-α was quantified by median fluorescent intensity reading (MFI). Samples were analyzed directly after staining with LSRII flow cytometer.

Ppargc1α mRNA = Ppargc1α mRNA expression in BV2 cells (rt-PCR); type: cell-based, murine; conditions: concentrations ranging from 0.7 μM to 20 μM, normalized to beta-actin mRNA
Excerpt: RNA was processed for real-time PCR.

[4] = tested on: 12 human primary cell-based systems; experiment: Eurofins BioMAP Diversity PLUS panel; remark: listed apart in the source
[5] = profile at 20 μM, 6.7 μM, 2.2 μM, 740 nM
[6] = BioMAP report, profile at 6.7 μM, 2.2 μM, 740 nM
[7] = profile at 6.7 μM, 2.2 μM, 740 nM

CC(C)(C)c1ccc(-c2nc3ccccc3[nH]2)cc1 [TQS-168, 2-(4-tert-butylphenyl)-1H-benzimidazole]
spontaneous release of IL-6 (amount of IL-6 produced) (IL-6 [1]): reduction
LPS-induced secretion of IL-6 (IL-6 [2]): reduce
T-cell proliferation, IgG, TNFα, and IL-8 ([3]; 6.7 μM): inhibit
decrease in sIgG and sTNFα in B and T cells as compared to metformin hydrochloride at 5000 μM ([3]; 6.7 μM): greater decrease
decrease in sIgG, sIL-17A, sIL-17F, sIL-2, sTNFα, sIL-6 from B and T cells ([3]; 20 μM, highest concentration of the profile): greatest decrease
inflammatory markers Eotaxin-3, P-selectin, IL-8, PGE2, IP-10 [3, 5]: decreased
proliferation of endothelial, B cells, T cells, coronary artery SMC & fibroblasts [3, 5]: anti-proliferative
tissue remodeling markers uPAR, MMP1, tPA, alpha-SMA, Collagen III [3, 5]: modulated
suppression of TNFα production (TNF-α; 5 μM): statistically significant suppression
suppression of TNFα production (TNF-α; 20 μM): statistically significant suppression
Ppargc1α mRNA expression (Ppargc1α mRNA): induces
decrease in sIgG, sIL-17F, sTNFα from B and T cells ([4]; 6.7 μM): greatest decrease
cytotoxicity to endothelial cells ([4]; 20 μM): cytotoxic
highest nontoxic concentration tested ([4]; BioMAP Diversity PLUS panel): 6.7 µM
tissue remodeling activity MMP-1 [4, 6]: increased
tissue remodeling activity αSMA [4, 6]: decreased
activity at non-cytotoxic concentrations [4, 7]: active
immune markers sIgG, sIL-17-F, sTNFα (from B and T cells, not monocytes) [4, 7]: decreased
inflammatory markers sPGE2 (from monocytes), IL-8 [4, 7]: decreased
proliferation of endothelial cells, T cells, B cells & fibroblasts [4, 7]: anti-proliferative
sIL-6 [4, 7]: increased
tissue remodeling markers MMP1, alpha-SMA [4, 7]: modulated
VCAM-1 [4, 5]: increased
immune markers sIgG, sIL-17A, sIL-17F, sIL-2, sTNFα, sIL-6 (from B and T cells, not monocytes) [4, 5]: decreased

From patent US20240316008A1, “TREATMENT OF SYSTEMIC IMMUNE ACTIVATION SYNDROMES” (TRANQUIS THERAPEUTICS, INC., priority 2020, published 2024)
